The source of these data is patent US10183938B2, “Geminal substituted quinuclidine amide compounds as agonists of α-7 nicotonic acetylcholine receptors” (AXOVANT SCIENCES GMBH, priority 2014, dated 2019).

Molecules are shown by their SMILES. Structures can show the parent of a compound that is named as a salt.

This assay has as its target human α7 nAChRs transiently expressed in Xenopus laevis oocytes (Homo sapiens (Human), UniProt P36544). The assay is described as follows: Oocyte electrophysiology screen (TEVC). Type of assay: cell-based. Conditions: 0.01 mM test compound, peak current relative to 0.2 mM ACh. Here is the method:
Oocyte Electrophysiology Screen (% ACh @ 10 μM Oocyte)
The Oocyte Electrophysiology Screen studies were performed under contract by HiQScreen Geneva, Switzerland. All experiments were carried out at human α7 nAChRs transiently expressed in Xenopus laevis oocytes using the method of cDNA expression. Currents evoked by acetylcholine or other agonist ligands were recorded using the standard two-electrode voltage-clamp configuration (TEVC). X. laevis oocytes were prepared and injected using standard procedures. Briefly, ovaries were harvested from X. laevis females that were deeply anesthetized and pithed following the animal rights rule from the Geneva canton. A small piece of ovary was isolated for immediate preparation while the remaining part was placed at 4° C. in a sterile Barth solution containing in mM: NaCl 88, KCl 1, NaHCO3 2.4, HEPES 10, MgSO4.7H2O 0.82, Ca(NO3)2.4H2O 0.33, CaCl2.6H2O 0.41, at pH 7.4, and supplemented with 20 μg/mL of kanamycin, 100 unit/mL penicillin and 100 μg/mL streptomycin. […] Cells were held at −80 mV. Data were filtered at 10 Hz, captured at 100 Hz and analyzed using proprietary data acquisition and analysis software running under Matlab (Mathworks Inc.).
Experimental Protocol and Analysis
After establishing a baseline transmembrane current, acetylcholine (ACh) was applied for 5 seconds at a concentration of 0.2 mM to establish a control ACh-evoked current response. Following a wash period of 90 s in OR2 medium (free of ACh), cells were then exposed for 30 s to the test compound applied at 0.01 mM. The same reference ACh test pulse was immediately given at the end of the compound exposure and again after 90 s of recovery in OR2 Medium (free of ACh or test compound). All data were determined in triplicate. The response evoked by the test compound was expressed as a percentage of that evoked by ACh: Response (% ACh)=100×(Itest/IACh) where Itest is the peak inward current measured during exposure to 0.01 mM of test compound and IACh is the peak inward current measured in the presence of ACh.

human α7 nAChRs transiently expressed in Xenopus laevis oocytes, sequence (P36544 23-502 limits assumed): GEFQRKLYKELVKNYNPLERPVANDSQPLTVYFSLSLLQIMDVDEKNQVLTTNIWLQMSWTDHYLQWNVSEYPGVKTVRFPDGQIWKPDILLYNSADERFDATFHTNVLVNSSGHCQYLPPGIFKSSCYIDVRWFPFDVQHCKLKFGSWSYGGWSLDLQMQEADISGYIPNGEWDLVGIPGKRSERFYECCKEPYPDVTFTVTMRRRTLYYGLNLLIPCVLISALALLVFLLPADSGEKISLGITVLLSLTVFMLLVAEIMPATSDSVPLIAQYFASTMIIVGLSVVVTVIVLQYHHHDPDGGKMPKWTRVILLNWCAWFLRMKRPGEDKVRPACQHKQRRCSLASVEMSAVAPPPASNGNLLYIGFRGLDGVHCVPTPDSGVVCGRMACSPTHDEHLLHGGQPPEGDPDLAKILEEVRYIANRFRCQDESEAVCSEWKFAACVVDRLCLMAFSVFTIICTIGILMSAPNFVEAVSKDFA

For `Cc1coc2ccc(C(=O)N[C@@H]3C4CCN(CC4)C3(C)C)cc12` [(R)-40, (R)—N-(2,2-dimethylquinuclidin-3-yl)-3-methylbenzofuran-5-carboxamide hydrochloride], the “% ACh @ 10 μM Oocyte” value turned out to be 517 % ACh. As for `CC1(C)[C@H](NC(=O)c2ccc3occ(Cl)c3c2)C2CCN1CC2` [(R)-41, (R)-3-chloro-N-(2,2-dimethylquinuclidin-3-yl)benzofuran-5-carboxamide hydrochloride], the “% ACh @ 10 μM Oocyte” value is given as 384 % ACh. The result for `Cn1cnc2cc(C(=O)N[C@@H]3C4CCN(CC4)C3(C)C)ccc21` [(R)-42, (R)—N-(2,2-dimethylquinuclidin-3-yl)-1-methyl-1H-benzo[d]imidazole-5-carboxamide hydrochloride] reads 0 % ACh. The result for `CC1(C)[C@H](NC(=O)c2cc3ccc(N4CCOCC4)cc3s2)C2CCN1CC2` [(R)-44, (R)—N-(2,2-dimethylquinuclidin-3-yl)-6-morpholinobenzo[b]thiophene-2-carboxamide hydrochloride] reads 1 % ACh; that for `CC1(C)[C@H](NC(=O)c2cc3ccc(N4CCC(F)(F)CC4)cc3s2)C2CCN1CC2` [(R)-45, (R)-6-(4,4-difluoropiperidin-1-yl)-N-(2,2-dimethylquinuclidin-3-yl)benzo[b]thiophene-2-carboxamide hydrochloride], 1 % ACh; that for `CC(C)Oc1ccc2cc(C(=O)N[C@@H]3C4CCN(CC4)C3(C)C)sc2c1` [(R)-47, (R)—N-(2,2-dimethylquinuclidin-3-yl)-6-isopropoxybenzo[b]thiophene-2-carboxamide hydrochloride], 1 % ACh.

As for `CC1(C)[C@H](NC(=O)c2cc3ccc(N)cc3s2)C2CCN1CC2` [(R)-49, (R)-6-amino-N-(2,2-dimethylquinuclidin-3-yl)benzo[b]thiophene-2-carboxamide hydrochloride], the “% ACh @ 10 μM Oocyte” value was 576 % ACh. For `CC1(C)[C@H](NC(=O)c2cc3ccc(C4CCOCC4)cc3s2)C2CCN1CC2` [(R)-50, (R)—N-(2,2-dimethylquinuclidin-3-yl)-6-(tetrahydro-2H-pyran-4-yl)benzo[b]thiophene-2-carboxamide hydrochloride], the “% ACh @ 10 μM Oocyte” value was 0 % ACh. `Cl.O=C(N[C@@H]1C2CCN(CC2)C12CC2)c1cc2c(cn1)OCCO2` [(R)-76, (R)—N-(1′-azaspiro[cyclopropane-1,2′-bicyclo[2.2.2]octan]-3′-yl)-2,3-dihydro-[1,4]dioxino[2,3-c]pyridine-7-carboxamide hydrochloride]: the “% ACh @ 10 μM Oocyte” value turned out to be 129 % ACh.

As for `O=C(N[C@@H]1C2CCN(CC2)C12CC2)c1cnn2ncccc12` [(R)-80, (R)—N-(1′-azaspiro[cyclopropane-1,2′-bicyclo[2.2.2]octan]-3′-yl)pyrazolo[1,5-b]pyridazine-3-carboxamide hydrochloride], the “% ACh @ 10 μM Oocyte” value stood at 0 % ACh. As for `O=C(N[C@@H]1C2CCN(CC2)C12CC2)c1cc2cccnc2s1` [(R)-81, (R)—N-(1′-azaspiro[cyclopropane-1,2′-bicyclo[2.2.2]octan]-3′-yl)thieno[2,3-b]pyridine-2-carboxamide hydrochloride], the figure is 449 % ACh. Regarding `O=C(N[C@@H]1C2CCN(CC2)C12CC2)c1nc2ccccc2s1` [(R)-82, (R)—N-(1′-azaspiro[cyclopropane-1,2′-bicyclo[2.2.2]octan]-3′-yl)benzo[d]thiazole-2-carboxamide hydrochloride], the “% ACh @ 10 μM Oocyte” value worked out at 239 % ACh. As for `Cc1nc2cc(C(=O)N[C@@H]3C4CCN(CC4)C34CC4)ccc2s1` [(R)-87, (R)-2-methyl-N-(1′-azaspiro[cyclopropane-1,2′-bicyclo[2.2.2]octan]-3′-yl)benzo[d]thiazole-5-carboxamide hydrochloride], the figure is 341 % ACh. Take `Cc1nc2ccc(C(=O)N[C@@H]3C4CCN(CC4)C34CC4)cc2s1` [(R)-88, (R)-2-methyl-N-(1′-azaspiro[cyclopropane-1,2′-bicyclo[2.2.2]octan]-3′-yl)benzo[d]thiazole-6-carboxamide hydrochloride]: the “% ACh @ 10 μM Oocyte” value is 133 % ACh. As for `O=C(N[C@@H]1C2CCN(CC2)C12CC2)c1cnc2occc2c1` [(R)-89, (R)—N-(1′-azaspiro[cyclopropane-1,2′-bicyclo[2.2.2]octan]-3′-yl)furo[2,3-b]pyridine-5-carboxamide hydrochloride], the figure is 0 % ACh. As for `O=C(N[C@@H]1C2CCN(CC2)C12CC2)c1ccc2occc2n1` [(R)-90, (R)—N-(1′-azaspiro[cyclopropane-1,2′-bicyclo[2.2.2]octan]-3′-yl)furo[3,2-b]pyridine-5-carboxamide hydrochloride], the figure is 3 % ACh; as for `Cc1coc2ccc(C(=O)N[C@@H]3C4CCN(CC4)C34CC4)cc12` [(R)-93, (R)-3-methyl-N-(1′-azaspiro[cyclopropane-1,2′-bicyclo[2.2.2]octan]-3′-yl)benzofuran-5-carboxamide hydrochloride], 516 % ACh.

Take `Cn1cnc2ccc(C(=O)N[C@@H]3C4CCN(CC4)C34CC4)cc21` [(R)-96, (R)-1-methyl-N-(1′-azaspiro[cyclopropane-1,2′-bicyclo[2.2.2]octan]-3′-yl)-1H-benzo[d]imidazole-6-carboxamide hydrochloride]: the “% ACh @ 10 μM Oocyte” value was found to be 0 % ACh. The result for `O=C(N[C@@H]1C2CCN(CC2)C12CC2)c1cc2ccc(-n3ccnn3)cc2s1` [(R)-98, (R)—N-(1′-azaspiro[cyclopropane-1,2′-bicyclo[2.2.2]octan]-3′-yl)-6-(1H-1,2,3-triazol-1-yl)benzo[b]thiophene-2-carboxamide hydrochloride] reads 3 % ACh.

Turning to `O=C(N[C@@H]1C2CCN(CC2)C12CC2)c1cc2ccc(N3CCC(F)(F)CC3)cc2s1` [(R)-100, (R)-6-(4,4-difluoropiperidin-1-yl)-N-(1′-azaspiro[cyclopropane-1,2′-bicyclo[2.2.2]octan]-3′-yl)benzo[b]thiophene-2-carboxamide hydrochloride], the “% ACh @ 10 μM Oocyte” value is recorded as 1 % ACh. As for `CC(C)Oc1ccc2cc(C(=O)N[C@@H]3C4CCN(CC4)C34CC4)sc2c1` [(R)-102, (R)-6-isopropoxy-N-(1′-azaspiro[cyclopropane-1,2′-bicyclo[2.2.2]octan]-3′-yl)benzo[b]thiophene-2-carboxamide hydrochloride], the figure is 1 % ACh; as for `CS(=O)(=O)c1ccc2cc(C(=O)N[C@@H]3C4CCN(CC4)C34CC4)sc2c1` [(R)-103, (R)-6-(methylsulfonyl)-N-(1′-azaspiro[cyclopropane-1,2′-bicyclo[2.2.2]octan]-3′-yl)benzo[b]thiophene-2-carboxamide hydrochloride], 2 % ACh; as for `N#Cc1ccc2cc(C(=O)N[C@@H]3C4CCN(CC4)C34CC4)sc2c1` [(R)-104, (R)-6-cyano-N-(1′-azaspiro[cyclopropane-1,2′-bicyclo[2.2.2]octan]-3′-yl)benzo[b]thiophene-2-carboxamide hydrochloride], 20 % ACh.

For `COc1ccc2cc(C(=O)N[C@@H]3C4CCN(CC4)C3(C)C)sc2c1Cl` [(R)-112, (R)-7-chloro-N-(2,2-dimethylquinuclidin-3-yl)-6-methoxybenzo[b]thiophene-2-carboxamide hydrochloride], the “% ACh @ 10 μM Oocyte” value is recorded as 234 % ACh.
